Assay results taken from the NIST ThermoML archive (doi:10.1016/j.jct.2016.04.003).
± gives the expanded uncertainty stated by the source.

Key:
[1] = refractive index (Na D-line) (dimensionless); details: 99 kPa, Liquid, Standard Abbe refractometry
[2] = for surface tension liquid-gas: Drop volume; for viscosity: Capillary tube (Ostwald / Ubbelohde) method
[3] = refractive index (Na D-line) (dimensionless); xn = mol fraction of the nth substance listed; details: 99 kPa, Liquid, Standard Abbe refractometry, x2 = 0
[4] = xn = mol fraction of the nth substance listed; details: x2 = 0; for surface tension liquid-gas: Drop volume; for viscosity / speed of sound / mass density: 99 kPa, Liquid; for viscosity: Capillary tube (Ostwald / Ubbelohde) method; for speed of sound: Frequency=3 MHz, Sing-around technique in a fixed-path interferometer; for mass density: Vibrating tube method

| Compound | refractive index ([1]; 293.15 K) | refractive index ([3]; 293.15 K) | refractive index ([3]; 303.15 K) | refractive index ([3]; 313.15 K) | refractive index ([3]; 323.15 K) | surface tension liquid-gas ([4]; 293.15 K) [mN/m] | viscosity ([4]; 293.15 K) [mPa·s] | surface tension liquid-gas ([4]; 303.15 K) [mN/m] | viscosity ([4]; 303.15 K) [mPa·s] | surface tension liquid-gas ([4]; 313.15 K) [mN/m] | viscosity ([4]; 313.15 K) [mPa·s] | speed of sound ([4]; 313.15 K) [m/s] | surface tension liquid-gas ([4]; 323.15 K) [mN/m] | viscosity ([4]; 323.15 K) [mPa·s] | mass density ([4]; 323.15 K) [kg/m3] | further results |
| --- | --- | --- | --- | --- | --- | --- | --- | --- | --- | --- | --- | --- | --- | --- | --- | --- |
| CCCC[n+]1ccccc1.F[B-](F)(F)F [1-butylpyridinium tetrafluoroborate] | 1.44719 ± 0.00037 | – | – | – | – | – | – | – | – | – | – | – | – | – | – | – |
| O [water] | 1.33297 ± 0.00031 | – | – | – | – | – | – | – | – | – | – | – | – | – | – | refractive index ([1]; 303.15 K): 1.33196 ± 0.00031; refractive index ([1]; 313.15 K): 1.33061 ± 0.00031; refractive index ([1]; 323.15 K): 1.32904 ± 0.00031; surface tension liquid-gas ([2]; 293.15 K): 72.7 ± 0.8 mN/m; viscosity ([2]; 293.15 K, 99 kPa, Liquid): 1.002 ± 0.08 mPa·s; surface tension liquid-gas ([2]; 303.15 K): 71.1 ± 0.8 mN/m; viscosity ([2]; 303.15 K, 99 kPa, Liquid): 0.797 ± 0.064 mPa·s; surface tension liquid-gas ([2]; 313.15 K): 69.6 ± 0.7 mN/m; viscosity ([2]; 313.15 K, 99 kPa, Liquid): 0.653 ± 0.052 mPa·s; speed of sound ([2]; 313.15 K, 99 kPa, Liquid, Frequency=3 MHz, Sing-around technique in a fixed-path interferometer): 1529.2 ± 1.2 m/s; surface tension liquid-gas ([2]; 323.15 K): 67.8 ± 0.7 mN/m; viscosity ([2]; 323.15 K, 99 kPa, Liquid): 0.547 ± 0.044 mPa·s; mass density ([2]; 323.15 K, 99 kPa, Liquid, Vibrating tube method): 988.04 ± 1 kg/m3 |
| O [water] + CCCC[n+]1ccccc1.F[B-](F)(F)F | – | 1.33297 ± 0.00031 | 1.33196 ± 0.00031 | 1.33061 ± 0.00031 | 1.32904 ± 0.00031 | 72.7 ± 0.8 | 1.002 ± 0.08 | 71.1 ± 0.8 | 0.797 ± 0.064 | 69.6 ± 0.7 | 0.653 ± 0.052 | 1529.2 ± 1.2 | 67.8 ± 0.7 | 0.547 ± 0.044 | 988.04 ± 1 | – |
| O [water] + CCC[n+]1ccccc1.F[B-](F)(F)F | – | 1.33297 ± 0.00031 | 1.33196 ± 0.00031 | 1.33061 ± 0.00031 | 1.32904 ± 0.00031 | 72.7 ± 0.8 | 1.002 ± 0.08 | 71.1 ± 0.8 | 0.797 ± 0.064 | 69.6 ± 0.7 | 0.653 ± 0.052 | 1529.2 ± 1.2 | 67.8 ± 0.7 | 0.547 ± 0.044 | 988.04 ± 1 | – |
